Results reported in ChEMBL document CHEMBL1143756, “Alpha-substituted N-(4-tert-butylbenzyl)-N'-[4-(methylsulfonylamino)benzyl]thiourea analogues as potent and stereospecific TRPV1 antagonists” (Bioorg Med Chem, 2007).

Tests used:
[1] = biological target: Transient receptor potential cation channel subfamily V member 1 (Rattus norvegicus) (UniProt O35433); test: Agonist activity at rat TRPV1 receptor expressed in CHO cells by Ca2+ uptake assay; type: functional, cell-based
[2] = biological target: T1, Transient receptor potential cation channel subfamily V member 1 (Rattus norvegicus, UniProt O35433); test: Antagonist activity at rat TRPV1 receptor expressed in CHO cells by Ca2+ uptake assay
T1 sequence (O35433 whole entry): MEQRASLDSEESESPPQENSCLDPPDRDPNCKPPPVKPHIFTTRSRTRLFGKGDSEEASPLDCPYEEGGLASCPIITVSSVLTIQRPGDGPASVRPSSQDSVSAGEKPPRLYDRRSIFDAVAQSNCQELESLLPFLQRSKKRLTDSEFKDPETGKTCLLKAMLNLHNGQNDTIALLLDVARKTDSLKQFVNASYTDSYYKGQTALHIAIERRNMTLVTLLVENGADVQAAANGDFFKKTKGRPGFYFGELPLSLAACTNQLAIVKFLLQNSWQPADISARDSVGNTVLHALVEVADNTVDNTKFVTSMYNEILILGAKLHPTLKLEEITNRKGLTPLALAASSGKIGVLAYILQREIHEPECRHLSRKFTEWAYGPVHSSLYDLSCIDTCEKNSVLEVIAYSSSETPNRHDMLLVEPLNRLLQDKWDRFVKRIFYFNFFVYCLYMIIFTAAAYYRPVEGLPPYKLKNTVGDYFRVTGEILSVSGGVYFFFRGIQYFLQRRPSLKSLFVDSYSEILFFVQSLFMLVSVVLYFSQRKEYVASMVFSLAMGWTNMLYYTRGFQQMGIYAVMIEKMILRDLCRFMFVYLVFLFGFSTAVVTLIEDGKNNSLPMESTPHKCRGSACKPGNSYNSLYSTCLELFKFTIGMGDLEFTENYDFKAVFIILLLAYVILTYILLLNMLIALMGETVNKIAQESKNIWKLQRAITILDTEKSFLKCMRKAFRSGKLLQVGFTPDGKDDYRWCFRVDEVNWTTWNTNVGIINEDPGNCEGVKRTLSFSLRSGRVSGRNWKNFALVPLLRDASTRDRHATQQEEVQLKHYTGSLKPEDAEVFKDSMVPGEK

[3] = biological target: T1, Transient receptor potential cation channel subfamily V member 1; test: Displacement of [3H]RTX from rat TRPV1 receptor expressed in CHO cells; type: cell-based

Chain of Transient receptor potential cation channel subfamily V member 1 (Rattus norvegicus) (O35433 whole entry): as above

C[C@H](/N=C(\S)NCc1ccc(C(C)(C)C)cc1)c1ccc(NS(C)(=O)=O)cc1
Activity [1]: 8%

C[C@@H](NC(=S)NCc1ccc(C(C)(C)C)cc1)c1ccc(NS(C)(=O)=O)c(F)c1
Ki [2]: 37 nM

CN(C)CCCN1c2ccccc2Sc2ccc(Cl)cc21 [CHLORPROMAZINE]
Ki [3]: 1300 nM | Ki [2]: 520 nM

C[C@H](NC(=S)NCc1ccc(C(C)(C)C)cc1)c1ccc(NS(C)(=O)=O)cc1
Ki [3]: 3950 nM

CC(C)(C)c1ccc(CNC(=S)NC(C)(C)c2ccc(NS(C)(=O)=O)cc2)cc1
Ki [2]: 1800 nM

COc1cc(CNC(=S)NCc2ccc(C(C)(C)C)cc2)ccc1NS(C)(=O)=O
Ki [3]: 51 nM | Activity [1]: 18%

CC(NC(=S)NCc1ccc(C(C)(C)C)cc1)c1ccc(NS(C)(=O)=O)cc1 (configuration not stated)
Ki [3]: 59.3 nM | Ki [2]: 14.7 nM

C[C@H](NC(=S)NCc1ccc(C(C)(C)C)cc1)c1ccc(NS(C)(=O)=O)c(F)c1
Ki [3]: 2140 nM | Ki [2]: 2670 nM
